Assay results as given in the NIST ThermoML archive (doi:10.1016/j.jct.2010.01.016).

Columns and labels:
[1] = Liquid; for vapor or sublimation pressure: Closed cell (Static) method; for mass density: 298.15 K, 101.33 kPa, Vibrating tube method
[2] = excess molar enthalpy (molar enthalpy of mixing); xn = mol fraction of the nth substance listed; conditions: 303.15 K, 101 kPa, Liquid, Calvet calorimetry

CCN(CC)CCCN [N,N-diethylpropane-1,3-diamine]
[1]
Conditions	vapor or sublimation pressure [kPa]
273.15 K	0.031
283.15 K	0.073
293.15 K	0.155
303.15 K	0.31
313.15 K	0.586
323.15 K	1.053
333.15 K	1.809
343.15 K	2.987
353.15 K	4.759
363.15 K	7.346

Conditions	mass density [kg/m3]
[1]	821.363

CCN(CC)CCCN [N,N-diethylpropane-1,3-diamine] + C1CCCCC1
[2]
Conditions	excess molar enthalpy [kcal/mol]
x1 = 0.1022	0.141
x1 = 0.2027	0.209
x1 = 0.3028	0.245
x1 = 0.3197	0.247
x1 = 0.3519	0.251
x1 = 0.3953	0.255
x1 = 0.407	0.257
x1 = 0.4449	0.257
x1 = 0.4943	0.254
x1 = 0.5061	0.255
x1 = 0.5307	0.248
x1 = 0.5351	0.248
x1 = 0.5595	0.243
x1 = 0.5741	0.239
x1 = 0.6073	0.228
x1 = 0.6523	0.21
x1 = 0.7017	0.187
x1 = 0.7997	0.131
x1 = 0.8696	0.0837

C1CCCCC1 [cyclohexane]
[1]
Conditions	vapor or sublimation pressure [kPa]
273.15 K	3.726
283.15 K	6.352
293.15 K	10.36
303.15 K	16.26
313.15 K	24.65
323.15 K	36.24
333.15 K	51.85
343.15 K	72.4
353.15 K	98.87
363.15 K	132.35

Conditions	mass density [kg/m3]
[1]	774.1
